Source: US20120009320A1, “COMPOSITIONS COMPRISING MONATIN AND CALCIUM” (priority 2009, published 2012)
Where a name gives a salt, the structure may show the parent alone.

Experiments:
panelists [1] = experiment: Three-member panel rating (0-9 scale) of difference in sweetness due to calcium at <=200 ppm; format: in vivo, human; set-up: key: 0 = none; 1 = trace; 2 = faint; 3 = slight; 4 = mild; 5 = moderate; 6 = definite; 7 = strong; 8 = very strong; 9 = extreme; conditions: 20 ppm monatin in water, vs control without calcium
Method: The samples in Table 5 were prepared by adding 20 ppm of monatin to water in combination with an amount of calcium ranging between 12.5 ppm and 200 ppm. A control sample having 20 ppm of monatin and no calcium was also used. The monatin was in the R,R, form and prepared through a biosynthetic pathway as disclosed in U.S. Patent Publication No. 2005/282260. A three-member panel was used to evaluate sweetness, but instead of quantifying the sample in terms of sweetness equivalency (SEV), the panelists assigned the sample a number between 0 and 9 (see description of scale under Table 5).

[2] = Sweetness match of monatin-sweetened strawberry yogurt to 8% sucrose target; format: in vivo
Method: A strawberry yogurt sweetened with about 8% sucrose was prepared by conventional methods common to one skilled in the art of yogurt manufacturing to serve as a sweetness target. […] The monatin-sweetened yogurt that most closely matched the sweetness of the target sucrose sample was chosen.

panelists [3] = experiment: Concentration-response of monatin sweetness (SEV) in milk and diluted yogurt, Example 2; format: in vivo, human
Method: Monatin, aspartame and sucralose samples were prepared in milk (2% fat) and diluted with plain, fat-free yogurt. Sucrose reference solutions were prepared in solutions of the same medium.
(§1) Panelists (8-10) were presented with a range (2-12%; w/v) of sucrose reference solutions and a single test sample. They were instructed to taste the test sample and then to identify the reference sample that matched the perceived sweetness of the test sample. If the sweetness of the test sample was judged to fall between that of two references, panelists were asked to estimate sweetness to one decimal point. Panelists evaluated each sample in duplicate. All results for each test sample were averaged.
Sweetener test samples and sucrose references were prepared as solutions in the following mediums: • (1) Milk (2% fat) at pH 6.8. • (2) A diluted plain (unsweetened and unflavored) yogurt was sheared with water (80 parts yogurt and 20 parts water) to yield an acidic solution based on fermented milk with a final pH of 4.6.

panelists [4] = experiment: Sensory panel sweetness matching against sucrose references (SEV) in milk and water media, Example 1; format: in vivo, human; conditions: for sweetness enhancement of water/calcium solution over monatin in water alone: c. 120 mg calcium/100 ml as Gluconal CAL
Method: As used herein, “sucrose equivalency value”, or SEV, is a measure of sweetness. The SEV is the concentration (% w/v) of a sucrose solution that gives a degree of sweetness that is perceived to be the same degree of sweetness as that of a test sample. For purposes of this disclosure, the SEV of an aqueous or dairy solution containing monatin is determined through comparison of the monatin-containing solution to a series of sucrose containing solutions prepared in the same medium (see Example 1).
Monatin compositions were prepared by adding monatin to each of the solutions below at 20 ppm and 40 ppm. Sucrose reference compositions were also prepared. • Milk (0% fat) • Milk (0% fat) adjusted to pH 4.6 with lactic acid • Milk (2% fat) • Milk (3.6% fat) • Water • Water, adjusted to pH 4.6 with lactic acid • Water containing c. 120 mg calcium/100 ml (Ca^2+ added as Gluconal CAL® soluble salt) • Water containing 4.5% lactose • Water containing c. 120 mg calcium/100 mL plus 4.5% lactose • Water containing 3% milk protein isolate (Davisco BiPro)
as §1, with “solutions prepared in each of the mediums listed above as well as two monatin test solutions at 20 ppm” for “solutions”, “40 ppm prepared in the same manner. The panelists” for “a single test sample. They”

[5] = Sweetness match of monatin-sweetened chocolate milk to 10% sucrose target; format: in vivo
Method: A chocolate milk composition sweetened with 42 DE high fructose corn syrup (HFCS) to about 10% sucrose was prepared by conventional methods common to one skilled in the art of flavored milk manufacturing to serve as a sweetness target. The amount of monatin in the five samples was about 25 ppm, about 30 ppm, about 35 ppm, about 40 ppm and about 45 ppm. Each of the five samples of monatin-sweetened milk were compared to the target milk sample containing 10% sucrose. The monatin-sweetened milk that most closely matched the sweetness of the target sucrose sample was chosen.

[6] = Diluted Yogurt (pH 4.6), monatin 10 ppm
[7] = Diluted Yogurt (pH 4.6), monatin 20 ppm
[8] = Diluted Yogurt (pH 4.6), monatin 30 ppm
[9] = Diluted Yogurt (pH 4.6), monatin 40 ppm
[10] = Diluted Yogurt (pH 4.6), monatin 50 ppm
[11] = Milk, 2% fat (pH 6.8), monatin 5 ppm
[12] = Milk, 2% fat (pH 6.8), monatin 10 ppm
[13] = Milk, 2% fat (pH 6.8), monatin 20 ppm
[14] = Milk, 2% fat (pH 6.8), monatin 30 ppm
[15] = Milk, 2% fat (pH 6.8), monatin 40 ppm
[16] = Milk, 2% fat (pH 6.8), monatin 50 ppm

NC(CC(O)(Cc1c[nH]c2ccccc12)C(=O)O)C(=O)O (stereo not drawn) [R,R-Monatin, 2R,4R-Monatin mono potassium salt]
Difference in Sweetness Due to Calcium (panelists [1]; calcium 12.5 ppm): 1 | Difference in Sweetness Due to Calcium (panelists [1]; calcium 25 ppm): 3 | Difference in Sweetness Due to Calcium (panelists [1]; calcium 50 ppm): 4 | Difference in Sweetness Due to Calcium (panelists [1]; calcium 100 ppm): 5 | Difference in Sweetness Due to Calcium (panelists [1]; calcium 200 ppm): 6 | monatin concentration that most closely matched the sweetness of yogurt sweetened to 8% sucrose ([2]; strawberry yogurt): about 25 ppm | times as sweet as sucrose ([2]; strawberry yogurt): about 3200 times | SEV ([2]; strawberry yogurt with 25 ppm R,R monatin): about 8% | Relative Sweetness (panelists [3]; [6]): 4,000 ×sucrose | SEV (panelists [3]; [6]): 4.0 % sucrose; w/v | Relative Sweetness (panelists [3]; [7]): 3,300 ×sucrose | SEV (panelists [3]; [7]): 6.6 % sucrose; w/v | Relative Sweetness (panelists [3]; [8]): 3,100 ×sucrose | SEV (panelists [3]; [8]): 9.3 % sucrose; w/v | Relative Sweetness (panelists [3]; [9]): 2,625 ×sucrose | SEV (panelists [3]; [9]): 10.5 % sucrose; w/v | Relative Sweetness (panelists [3]; [10]): 2,280 ×sucrose | SEV (panelists [3]; [10]): 11.4 % sucrose; w/v | Relative Sweetness (panelists [3]; [11]): 4,000 ×sucrose | SEV (panelists [3]; [11]): 2.0 % sucrose; w/v | Relative Sweetness (panelists [3]; [12]): 3,000 ×sucrose | SEV (panelists [3]; [12]): 3.0 % sucrose; w/v | Relative Sweetness (panelists [3]; [13]): 2,750 ×sucrose | SEV (panelists [3]; [13]): 5.5 % sucrose; w/v | Relative Sweetness (panelists [3]; [14]): 2,270 ×sucrose | SEV (panelists [3]; [14]): 6.8 % sucrose; w/v | Relative Sweetness (panelists [3]; [15]): 2,100 ×sucrose | SEV (panelists [3]; [15]): 8.4 % sucrose; w/v | Relative Sweetness (panelists [3]; [16]): 1,780 ×sucrose | SEV (panelists [3]; [16]): 8.9 % sucrose; w/v | decrease in sweetness of water solution having 4.5% lactose compared to water solution only containing monatin (panelists [4]; 20 ppm monatin): 22% | sweetness enhancement of 0% fat milk at pH 4.6 over 0% fat milk at pH 6.4 (panelists [4]; 20 ppm monatin): 13% | SEV (panelists [4]; 20 ppm monatin, Milk (0% fat), pH 6.4): 5.3 %; w/v | SEV (panelists [4]; 20 ppm monatin, Milk (0% fat; yogurt + milk), pH 4.6): 6.0 %; w/v | SEV (panelists [4]; 20 ppm monatin, Milk (2% fat), pH 6.4): 5.6 %; w/v | SEV (panelists [4]; 20 ppm monatin, Milk (3.6% fat), pH 6.4): 5.2 %; w/v | SEV (panelists [4]; 20 ppm monatin, Water + 120 mg/100 mL calcium (Gluconal CAL), pH 7.6): 6.4 %; w/v | SEV (panelists [4]; 20 ppm monatin, Water + 3% whey protein isolate, pH 7.8): 5.2 %; w/v | SEV (panelists [4]; 20 ppm monatin, Water + 4.5% lactose, pH 7.8): 4.0 %; w/v | SEV (panelists [4]; 20 ppm monatin, Water + calcium + lactose, pH 7.8): 5.6 %; w/v | SEV (panelists [4]; 20 ppm monatin, Water + lactic acid, pH 4.6): 6.0 %; w/v | SEV (panelists [4]; 20 ppm monatin, Water, pH 7.8): 5.1 %; w/v | sweetness enhancement of water/calcium solution over monatin in water alone (panelists [4]; 20 ppm monatin): 25% | decrease in sweetness of water solution having 4.5% lactose compared to water solution only containing monatin (panelists [4]; 40 ppm monatin): 18% | sweetness enhancement of 0% fat milk at pH 4.6 over 0% fat milk at pH 6.4 (panelists [4]; 40 ppm monatin): 16% | SEV (panelists [4]; 40 ppm monatin, Milk (0% fat), pH 6.4): 8.5 %; w/v | SEV (panelists [4]; 40 ppm monatin, Milk (0% fat; yogurt + milk), pH 4.6): 9.9 %; w/v | SEV (panelists [4]; 40 ppm monatin, Milk (2% fat), pH 6.4): 8.7 %; w/v | SEV (panelists [4]; 40 ppm monatin, Milk (3.6% fat), pH 6.4): 8.3 %; w/v | SEV (panelists [4]; 40 ppm monatin, Water + 120 mg/100 mL calcium (Gluconal CAL), pH 7.6): 9.0 %; w/v | SEV (panelists [4]; 40 ppm monatin, Water + 3% whey protein isolate, pH 7.8): 7.6 %; w/v | SEV (panelists [4]; 40 ppm monatin, Water + 4.5% lactose, pH 7.8): 6.3 %; w/v | SEV (panelists [4]; 40 ppm monatin, Water + calcium + lactose, pH 7.8): 8.0 %; w/v | SEV (panelists [4]; 40 ppm monatin, Water + lactic acid, pH 4.6): 7.9 %; w/v | SEV (panelists [4]; 40 ppm monatin, Water, pH 7.8): 7.7 %; w/v | sweetness enhancement of water/calcium solution over monatin in water alone (panelists [4]; 40 ppm monatin): 17% | impact of milk fat on relative sweetness values of monatin solutions prepared from milk (panelists [4]; milk 0%, 2%, 3.6% fat): essentially unaffected | monatin concentration that most closely matched the sweetness of milk sweetened to 10% sucrose [5]: about 35 ppm | times as sweet as sucrose [5]: about 2800 times
